These results are taken from patent US9469652B2, “ERK inhibitors” (Eli Lilly and Company, priority 2014, dated 2016).

Structures are written as SMILES.

Experiment [1] concerns human non-small cell lung cancer cells NCI-H441 (KRAS_G12V). As to the kind of experiment: In vivo combination study, NCI-H441 NSCLC xenograft model. The note with it: single agent. The procedure:
More specifically, the compound of Example 1 is tested in combination with either the pan-RAF inhibitor compound or the CDK4/6 inhibitor compound in HCT116, a KRAS mutant colorectal cancer xenograft model. Also, the compound of Example 1 is tested in combination with either the CDK4/6 inhibitor compound or DC101 in NCI-H441, A549, and NCI-H2122, KRAS mutant non-small cell lung cancer (NSCLC) xenograft models.
Combination efficacy is also tested in three KRAS mutant NSCLC xenograft models including A549 (KRAS_G12S) in SCID mice as well as NCI-H441 (KRAS_G12V) and NCI-H2122 (KRAS_G12C) in athymic nude mice. Expand human non-small cell lung cancer cells NCI-H441 (ATCC, #CRL-5807) and NCI-H2122 (ATCC, #CRL-5985) in culture, harvest and inject 5×10e^6 cells in 200 μL of 1:1 HBSS+matrigel solution subcutaneously on to the rear right flank of female athymic nude mice (20-22 gm, Harlan Laboratories). Expand human non-small cell lung cancer cells A549 (ATCC, #CC1-185) in culture, harvest and inject 5×10e^6 cells in 200 μL of 1:1 HBSS+matrigel solution subcutaneously on to the rear right flank of female CB-17 SCID mice (18-20 gm, Taconic Farms). For all cell lines, measure tumor growth and body weight twice per week beginning the seventh day after the implantation. When average tumor sizes reach 200-300 mm^3, randomize animals and group into groups of five to seven animals. Prepare test compound in an appropriate vehicle (see below) and administer by oral gavage (compound of Example 1 and the CDK4/6 inhibitor compound) or intraperitoneally (DC101) for 21 to 28 days. Tumor response is determined by tumor volume measurement performed twice a week during the course of treatment. Vehicle used in these studies is 1% HEC/0.25% Tween® 80/0.05% Antifoam. The compound of Example 1 is formulated in 1% HEC/0.25% Tween® 80/0.05% Antifoam and the CDK4/6 inhibitor compound is formulated in 1% HEC in 25 mM sodium phosphate buffer, pH 2. […] In the same NCI-H441 xenograft model, DC101 in phosphate buffer is also administered intraperitoneally twice per week (BIW) as a single agent or in combination with the compound of Example 1, 50 mpk, QD for 28 days.

In experiment [2] the test system is human colorectal cancer cells HCT116. Description: Xenograft tumor model HCT116. Conditions: oral gavage; for Delta T/C % or Regr %: negative = regression. It counts as in vivo, female athymic nude mice. How it is done: (§1) The purpose of this assay is to measure reduction in tumor volume in response to test compound administration. Expand human colorectal cancer cells HCT116 (ATCC, # CCL-247) in culture, harvest and inject 5×10e^6 cells in 200 μL of 1:1 HBSS+matrigel solution subcutaneously on to the rear right flank of female athymic nude mice (22-25 g, Harlan Laboratories). Expand human pancreatic cancer cells MIA PACA-2 (ATCC, # CRL-1420) or human non-small cell lung cancer cells CALU-6 (ATCC, #HTB-56) or human colorectal cancer cells COLO-205 (ATCC, #CCL-222) in culture, harvest and inject 5×10e^6 cells in 200 μL of 1:1 HBSS+matrigel solution subcutaneously on to the rear right flank of female athymic nude mice (22-25 g, Harlan Laboratories). Measure tumor growth and body weight twice per week beginning the seventh day after the implantation. When tumor sizes reach 200-400 mm^3, randomize animals and group into groups of eight to ten animals. Prepare test compound in an appropriate vehicle (vehicle: 1% HEC/0.25% Tween 80/0.05% Antifoam) and administer by oral gavage for 14 to 21 days. Tumor response is determined by tumor volume measurement performed twice a week during the course of treatment. Body weight is taken as a general measure of toxicity.
(§2) A compound within the scope of invention is tested in this assay run substantially as above.

Experiment [3] has as its system human non-small cell lung cancer cells CALU-6. Description: Xenograft tumor model CALU-6. It counts as in vivo, female athymic nude mice. Conditions: oral gavage; for Delta T/C % or Regr %: negative = regression. How it is done: as §1, §2

As for `Cn1nccc1Nc1nccc(-c2cc3c(s2)C(C)(C)N(CCN2CCOCC2)C3=O)n1` [Example 1, 6,6-Dimethyl-2-{2-[(1-methyl-1H-pyrazol-5-yl)amino]pyrimidin-4-yl}-5-[2-(morpholin-4-yl)ethyl]-5,6-dihydro-4H-thieno[2,3-c]pyrrol-4-one], in experiment [1] (50 mg/kg QD, oral, 28 days), the Regression % came out at 1%. For the same molecule, the tumor growth inhibition in experiment [1] (50 mpk) stood at 101%. For the same molecule, the TGI % is 108% in experiment [2] (25 mg/kg QD); 89% in experiment [2] (50 mg/kg QD); 125% in experiment [2] (100 mg/kg QD); 78% in experiment [3] (12.5 mg/kg QD); 86% in experiment [3] (25 mg/kg QD); 131% in experiment [3] (50 mg/kg QD). The TGI % in experiment [3] (100 mg/kg QD) stood at 177%. The “Delta T/C % or Regr %” value in experiment [2] (25 mg/kg QD) was −8%; in experiment [2] (50 mg/kg QD), 11%; in experiment [2] (100 mg/kg QD), −25%; in experiment [3] (12.5 mg/kg QD), 22%; in experiment [3] (25 mg/kg QD), 14%; in experiment [3] (50 mg/kg QD) it was −31%. The “Delta T/C % or Regr %” value in experiment [3] (100 mg/kg QD) is recorded as −77%.
